Experimental data as given in US6291405A, “Glycol based drilling fluid” (M-I LLC, priority 1998, dated 2001).

How the values were obtained:
[1] = Viscosity properties of glycols, Fann 35A viscometer readings; type: physicochemical
Experimental: Readings were taken on a Fann 35A viscometer at 600 and 300 rpm both at room temperature and 120° F.

[2] = cited from earlier work; for toxicity ranking: based on laboratory test data, direct ingestion; for LD50: single-dose oral
[3] = Gumbo shale sticking test, diethylene glycol/water plus 10% GMO; conditions: in words
Experimental: This test was conducted using the test method described in example 2, except each test sample contained 10% glycerol monooleate (GMO) as the antisticking agent.

Row | Molecule | Fann 35A viscometer reading ([1]; 120° F, 300 rpm) | Fann 35A viscometer reading ([1]; 120° F, 600 rpm) | Fann 35A viscometer reading ([1]; Room Temperature, 300 rpm) | Fann 35A viscometer reading ([1]; Room Temperature, 600 rpm) | toxicity ranking [2] | LD50 [2] | antisticking properties [3]
1 | CC(CO)CO [2-Methyl Propyl 1,3-Diol, reference compound] | 42 | 80 | 216 | > 300 |  |  | 
2 | OCCOCCO [Diethylene Glycol, diethylene glycol] |  |  |  |  | followed by diethylene, triethylene, and dipropylene glycols | 16-21 gm/KG | 
3 | OCCO [Ethylene Glycol, ethylene glycol] |  |  |  |  | the most toxic | 6-12 gm/KG | 
4 | OCC(O)CO [Glycerine, reference compound] | 135 | 262 | > 300 | > 300 |  |  | 
5 | CC(O)CO (centres unmarked) [Propylene Glycol, propylene glycol] | 15 | 28 | 47 | 92 | the least toxic | 21-34 gm/KG | 
6 | OCCOCCOCCO [Triethylene Glycol, triethylene glycol] | 16 | 31 | 42 | 83 | followed by diethylene, triethylene, and dipropylene glycols | 16-22 gm/KG | 
7 | CC(O)COC(C)COC(C)CO (centres unmarked) [Tripropylene Glycol, tripropylene glycol] | 18 | 34 | 59 | 116 | the most toxic |  | 
8 | CCCCCCCC/C=C\CCCCCCCC(=O)OCC(O)CO (centres unmarked) [glycerol monooleate] |  |  |  |  |  |  | improved the antisticking properties of the diethylene glycol fluids
9 | butylene glycol |  |  |  |  | the least toxic | 23-30 gm/KG | 
10 | dipropylene glycol | 21 | 41 | 82 | 163 | followed by diethylene, triethylene, and dipropylene glycols | ~ 15 gm/KG | 
